Data as given in PMC9683698 (Science Advances, 2022).

Assays:
[1] = target: T1, cPLA2 (cPLA2 group IVA, PLA2G4A) (Homo sapiens, UniProt P47712); experiment: biochemical
T1 construct: recombinant, expressed and purified from insect cells
T1 sequence (P47712 1-749): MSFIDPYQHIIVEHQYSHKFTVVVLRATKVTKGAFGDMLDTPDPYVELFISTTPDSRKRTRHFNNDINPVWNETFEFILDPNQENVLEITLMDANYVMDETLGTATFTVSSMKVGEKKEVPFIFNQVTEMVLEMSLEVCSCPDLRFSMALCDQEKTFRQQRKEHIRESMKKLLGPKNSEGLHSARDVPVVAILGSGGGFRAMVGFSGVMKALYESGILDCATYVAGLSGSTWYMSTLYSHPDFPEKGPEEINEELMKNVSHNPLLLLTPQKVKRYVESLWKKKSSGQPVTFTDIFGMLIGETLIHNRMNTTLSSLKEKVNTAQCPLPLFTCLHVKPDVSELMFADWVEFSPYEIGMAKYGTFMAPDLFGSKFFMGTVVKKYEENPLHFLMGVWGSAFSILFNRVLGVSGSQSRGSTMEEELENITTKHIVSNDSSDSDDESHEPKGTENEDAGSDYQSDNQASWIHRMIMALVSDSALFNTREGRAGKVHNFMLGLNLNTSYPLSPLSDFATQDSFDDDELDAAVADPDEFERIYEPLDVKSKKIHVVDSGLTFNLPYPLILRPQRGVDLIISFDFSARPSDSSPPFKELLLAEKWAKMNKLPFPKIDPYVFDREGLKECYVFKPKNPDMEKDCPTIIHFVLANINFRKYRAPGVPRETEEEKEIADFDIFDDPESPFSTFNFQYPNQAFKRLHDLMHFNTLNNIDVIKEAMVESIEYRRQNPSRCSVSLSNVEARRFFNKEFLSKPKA

[2] = target: SARS-CoV S ectodomain (SARS-CoV) (UniProt P59594); experiment: […], SEC buffer 20 mM tris pH 7.5, 100 mM NaCl; […]

Row | Compound | IC50 [1] [µM] | stoichiometry N [2]
1 | CCCCC/C=C\C/C=C\CCCCCCCC(=O)O [linoleic acid] | ~100 | –
2 | SARS-CoV S ectodomain (from UniProt P59594 14-1193) (domain or fragment) | – | 3
